Legend:
5HT2A sensor [1] = settings: cited from earlier work
5HT2A sensor [2] = settings: cited from earlier work; remark: listed apart in the source
5-HT2A [3] = target: T1, 5-HT2A (Homo sapiens, UniProt P28223); assay: Serotonin 5-HT2A in vitro radioligand binding competition assay; parameters: purchased Epics Therapeutics S.A. (Belgium) FAST-0505B; host or cells: membrane extracts; settings: radiotracer [3H]-DOI, membrane extracts
Method: Serotonin 5-HT2A In Vitro Radioligand Binding Competition Assay. The 5-HT2A radioligand binding competition assay was performed at Epics Therapeutics S.A. (Belgium, FAST-0505B) using conventional methods. Briefly, competition binding was performed in duplicate in the wells of a 96 well plate (Master Block, Greiner, 786201) containing binding buffer (optimized for each receptor), membrane extracts (amount of protein/well optimized for each receptor), radiotracer [^3H]-DOI (final concentration optimized for each receptor) and test compound. Nonspecific binding was determined by co-incubation with 200-fold excess of cold competitor. The samples were incubated in a final volume of 0.1 ml at a temperature and for a duration optimized for each receptor and then filtered over filter plates. Filters were washed six times with 0.5 ml of ice-cold washing buffer (optimized for each receptor) and 50 µl of Microscint 20 (Packard) were added in each well. The plates were incubated 15 min on an orbital shaker and then counted with a TopCount™ for 1 min/well.

5-HT2A [4] = target: T1, 5-HT2A; assay: Serotonin 5-HT2A in vitro cellular IPOne agonism assay; type: cell-based; parameters: host or cells: CHO-K1; settings: CHO-K1 cells, IPOne HTRF, agonist mode
Method: (§1) Serotonin 5-HT2A In Vitro Cellular IPOne Agonism Assay. The 5-HT2A IPOne HTRF assay was performed at Epics Therapeutics S.A. (Belgium, FAST-0505I) using conventional methods. Briefly, CHO-K1 cells expressing human recombinant 5-HT2A receptor grown to mid-log phase in culture media without antibiotics were detached with PBS-EDTA, centrifuged, and resuspended in medium without antibiotics buffer. 20,000 cells were distributed in a 96 well plate and incubated overnight at 37° C. with 5% CO2.
For agonist testing, the medium was removed and 20 μl of assay buffer plus 20 μl of test compound or reference agonist are added in each well. The plate is incubated for 60 min. at 37° C. with 5% CO2.
(§2) After addition of the lysis buffer containing IP1-d2 and anti-IP1 cryptate detection reagents, plates were incubated 1-hour at room temperature, and fluorescence ratios were measured according to the manufacturer specification, with the HTRF kit.

5-HT2A [5] = target: T1, 5-HT2A; assay: Serotonin 5-HT2A in vitro cellular IPOne antagonism assay; type: cell-based; parameters: host or cells: CHO-K1; settings: CHO-K1 cells, IPOne HTRF, reference agonist a-Me-5HT; read-out: 5-HT2A IPOne Antagonist Activity
Method: as §1, with “IPOne Antagonism” for “IPOne Agonism”, “5-HT2A TPOne” for “5-HT2A IPOne”, “FAST-0505I) in antagonism mode” for “FAST-0505I)”, “with […]” for “with 5%”
For antagonist testing, a reference agonist a-Me-5HT was added and fluorescence signal monitored for several minutes, followed by addition of 20 μl of assay buffer plus 20 μl of test compound or reference antagonist ketanserin, in each well. The plate was incubated for 60 min. at 37° C. with 5% CO2.
as §2

rat cortical neurons = assay: Neurite outgrowth in primary neuronal cultures assay; type: cell-based; parameters: key: A: Statistically significant mean increase as a percent of DMSO control at 10 μM or less; B: No statistically significant mean increase as a percent of DMSO control at 10 μM or less; settings: 72 h, vs DMSO control, 10 μM or less
From the text: Neurite Outgrowth in Primary Neuronal Cultures Assay. Changes in the pattern of neurite outgrowth have been implicated in psychiatric and neurodegenerative disorders as well as traumatic injuries. The discovery of new compounds that can positively affect neuritogenesis are important for developing new therapeutics for neurological diseases. Measurement of neurite outgrowth of rat cortical neurons using an automated image-based assay was used to determine the neuroplastic effects of the compounds of the present disclosure. The neurite outgrowth assay was performed at Neurofit SAS (France) as described below.
Pregnant Wistar rats (Janvier; France) were used for the study. They were delivered 6 days before their use. Upon arrival at Neurofit animal facility, they were housed one per cage and maintained in a room with controlled temperature (21-22° C.) and a reversed light-dark cycle (12 h/12 h; lights on: 17:30-05:30; lights off: 05:30-17:30) with food and water available ad libitum.
Female Wistar rats of 17 days gestation were killed by cervical dislocation and the fetuses were removed from the uterus. Their brains were placed in ice-cold medium of Leibovitz (L15, Gibco, Fisher bioblock, France). Cortices were dissected and meninges were carefully removed. The cortical neurons were dissociated by trypsinization for 30 min at 37° C. (trypsin-EDTA, Gibco) in presence of 0.1 mg/ml DNAse I (Roche, France). The reaction was stopped by addition of Dulbecco's Modified Eagle Medium (DMEM; Gibco) with 10% of fetal bovine serum (FBS; Gibco). The suspension was triturated with a 10-ml pipette and using a needle syringe 21 G and centrifuged at 350×g for 10 min at room temperature. The pellet of dissociated cells was resuspended in a medium consisting of Neurobasal (Gibco) supplemented with 2% B27 supplement (Gibco), 0.5 mM L-Glutamine (Gibco), an antibiotic-antimicotic mixture. Viable cells were counted in a Neubauer cytometer using the trypan blue exclusion test (Sigma). Cells were seeded at a density of 10000 cells per well in 96-well plate (Costar) precoated with poly-L-lysine. Test compound at different concentrations were added to the cultures. Donepezil (positive control) was tested at 250 nM.
After 72 h (3 days) of plating, cultures were fixed with paraformaldehyde in PBS (4%, Sigma) for 30 min at 4° C. Then, cells were successively permeabilized with 0.1% Triton X100 for 30 min, saturated with PBS containing 3% of BSA and were incubated 1 h with anti-beta III tubulin antibody (Sigma) at 1/10 000 in PBS containing 0.5% of BSA. Cells were washed three times with PBS containing 0.5% of BSA, and they were incubated 1 h with goat anti-mouse antibody coupled with AF488 (Invitrogen A11001) diluted at 1/1000 in PBS containing 0.5% of BSA. Finally, nuclei were staining with DAPI 1 mg/ml at 1/1000 in PBS containing 0.5% of BSA. After rinsing with PBS, the plate was filmed and neurite networks were examined and analyzed using High-Content Screening (CellInsight, Thermo Scientific). The average number of neurites per neuron and the average total length of neurites per neuron were the main parameters analyzed. Analysis of data was performed using analysis of variance (ANOVA). The Fisher's Protected Least Significant Difference test was used for multiple comparisons. A p value ≤0.05 was considered significant. The software used is StatView 5.0 from SAS Institut.

T1 sequence (P28223 whole entry): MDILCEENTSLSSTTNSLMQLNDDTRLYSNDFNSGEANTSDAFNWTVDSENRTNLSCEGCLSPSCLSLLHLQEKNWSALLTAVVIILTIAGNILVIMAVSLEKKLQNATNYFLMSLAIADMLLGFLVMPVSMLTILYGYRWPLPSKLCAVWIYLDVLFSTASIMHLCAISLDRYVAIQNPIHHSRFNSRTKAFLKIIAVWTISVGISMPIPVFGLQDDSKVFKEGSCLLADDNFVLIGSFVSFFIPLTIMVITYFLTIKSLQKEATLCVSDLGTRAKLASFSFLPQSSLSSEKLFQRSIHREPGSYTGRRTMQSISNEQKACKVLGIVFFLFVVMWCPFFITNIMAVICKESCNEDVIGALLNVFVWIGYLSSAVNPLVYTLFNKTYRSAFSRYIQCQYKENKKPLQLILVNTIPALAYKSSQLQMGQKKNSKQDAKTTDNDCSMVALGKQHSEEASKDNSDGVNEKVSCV

Structure (SMILES)	activation of the 5HT2A sensor assay in agonist mode (5HT2A sensor [1])	competition with 5-HT in the 5HT2A sensor assay in antagonist mode (5HT2A sensor [2])	IC50 (5-HT2A [3])	EC50 (5-HT2A [4])	IC50 (5-HT2A [5])	Increase in Neurite Length (rat cortical neurons)	Increase in Neurite Number (rat cortical neurons)	Increase in Number of Branchpoints (rat cortical neurons)
CCN(CC)C(=O)[C@@H]1C=C2c3cccc4[nH]c(Br)c(c34)C[C@H]2N(C)C1 [BOL148]	do not activate the 5HT2A sensor assay in agonist mode	can compete with 5HT binding to 5HT2A						
C[C@H](Cn1ccc2nc(OCc3ccccc3)ccc21)N(C)C [Compound 1, (R)-1-(5-(benzyloxy)-1H-pyrrolo[3,2-b]pyridin-1-yl)-N,N-dimethylpropan-2-amine]			101 to 1000 nM	> 10000 nM	101 to 1000 nM	A	A	A
C[C@@H](N)Cn1ccc2nc(OCc3ccccc3)ccc21 [Compound 2, (R)-1-(5-(benzyloxy)-1H-pyrrolo[3,2-b]pyridin-1-yl)propan-2-amine]			> 10000 nM	> 10000 nM				
C[C@H](Cn1ccc2cc(OCc3ccccc3)ccc21)N(C)C [Compound 3, (R)-1-(5-(benzyloxy)-1H-indol-1-yl)-N,N-dimethylpropan-2-amine]			101 to 1000 nM	> 10000 nM	10 to 100 nM	A	B	B
CN[C@H](C)Cn1ccc2cc(OCc3ccccc3)ccc21 [Compound 4, (R)-1-(5-(benzyloxy)-1H-indol-1-yl)-N-methylpropan-2-amine]			1000 to 10000 nM	> 10000 nM	101 to 1000 nM	A	A	A
C[C@@H](N)Cn1ccc2cc(OCc3ccc(F)cc3)ccc21 [Compound 5, (R)-1-(5-((4-fluorobenzyl)oxy)-1H-indol-1-yl)propan-2-amine]			101 to 1000 nM	1000 to 10000 nM	101 to 1000 nM	B	B	B
C[C@@H](N)Cn1ccc2cc(OCc3cccc(F)c3)ccc21 [Compound 6, (R)-1-(5-((3-fluorobenzyl)oxy)-1H-indol-1-yl)propan-2-amine]			101 to 1000 nM	1000 to 10000 nM	101 to 1000 nM	A	B	A
CCN(CC)CCc1c[nH]c2cc(F)ccc12 [Compound 6-F-DET, 6-F-DET]	do not activate the 5HT2A sensor assay in agonist mode	can compete with 5HT binding to 5HT2A						
C[C@@H](N)Cn1ccc2cc(OCc3ccccc3F)ccc21 [Compound 7, (R)-1-(5-((2-fluorobenzyl)oxy)-1H-indol-1-yl)propan-2-amine]			1000 to 10000 nM	1000 to 10000 nM		B	A	A
C[C@H](Cn1ccc2cc(OCc3ccc(F)cc3)ccc21)N(C)C [Compound 8, (R)-1-(5-((4-fluorobenzyl)oxy)-1H-indol-1-yl)-N,N-dimethylpropan-2-amine]			10 to 100 nM	> 10000 nM	< 10 nM	A	A	A
C[C@H](Cn1ccc2cc(OCc3cccc(F)c3)ccc21)N(C)C [Compound 9, (R)-1-(5-((3-fluorobenzyl)oxy)-1H-indol-1-yl)-N,N-dimethylpropan-2-amine]			101 to 1000 nM	> 10000 nM	10 to 100 nM	A	A	A
C[C@H](Cn1ccc2cc(OCc3ccccc3F)ccc21)N(C)C [Compound 10, (R)-1-(5-((2-fluorobenzyl)oxy)-1H-indol-1-yl)-N,N-dimethylpropan-2-amine]			10 to 100 nM	> 10000 nM	101 to 1000 nM	A	A	A
CCN(CC)[C@H](C)Cn1ccc2cc(OCc3ccccc3)ccc21 [Compound 11, (R)-1-(5-(benzyloxy)-1H-indol-1-yl)-N,N-diethylpropan-2-amine]			1000 to 10000 nM	> 10000 nM	101 to 1000 nM	A	A	A
C[C@H](Cn1ccc2cc(OCc3ccccc3)ccc21)N1CCCC1 [Compound 12, (R)-5-(benzyloxy)-1-(2-(pyrrolidin-1-yl)propyl)-1H-indole]			1000 to 10000 nM	> 10000 nM	101 to 1000 nM	A	A	B
CN(C)CCc1c[nH]c2ccccc12 [DMT, N,N-dimethyltryptamine]	activate the 5HT2A sensor assay in agonist mode							
COc1cc(CC(C)N)c(OC)cc1I (stereo not drawn) [DOI]	activate the 5HT2A sensor assay in agonist mode							
CN[C@H](C)Cc1ccc2c(c1)OCO2 [L-MDMA]	do not activate the 5HT2A sensor assay in agonist mode							
CCN(CC)C(=O)[C@@H]1C=C2c3cccc4[nH]cc(c34)C[C@H]2N(C)C1 [LSD]	activate the 5HT2A sensor assay in agonist mode							

Source: patent US20250051276A1 (priority 2021, published 2025)
